Measured values from ChEMBL document CHEMBL1149028, “Isolation and structure of cephalostatins 10 and 11” (1994).
Converted amounts (≈) assume the structure as drawn.

Columns and labels:
Format in all cases: functional
P388 = experiment: Growth inhibition of mouse P388 cells; settings: read-out: ED50 (the source's name)
COLO 205 = experiment: Growth inhibition of human COLO205 cells
DLD-1 = experiment: Growth inhibition of human DLD1 cells
HCC 2998 = experiment: Growth inhibition of human HCC2998 cells
HCT-116 = experiment: Growth inhibition of human HCT116 cells
HCT-15 = experiment: Growth inhibition of human HCT15 cells
HT-29 = experiment: Growth inhibition of human HT-29 cells
KM-20L2 = experiment: Growth inhibition of human KM20L2 cells
SW-620 = experiment: Growth inhibition of human SW620 cells
SF-268 = experiment: Growth inhibition of human SF268 cells
SF-295 = experiment: Growth inhibition of human SF295 cells
SF-539 = experiment: Growth inhibition of human SF539 cells
SNB-19 = experiment: Growth inhibition of human SNB19 cells
SNB-75 = experiment: Growth inhibition of human SNB75 cells
SNB-78 = experiment: Growth inhibition of human SNB78 cells
U-251 = experiment: Growth inhibition of human U251 cells
XF498 = experiment: Growth inhibition of human XF498 cells
LOX IMVI = experiment: Growth inhibition of human LOXIMVI cells
Malme-3M = experiment: Growth inhibition of human MALME-3M cells
M14 = experiment: Growth inhibition of human M14 cells
M19-MEL = experiment: Growth inhibition of human M19-MEL cells
SK-MEL-2 = experiment: Growth inhibition of human SK-MEL-2 cells
SK-MEL-28 = experiment: Growth inhibition of human SK-MEL-28 cells
SK-MEL-5 = experiment: Growth inhibition of human SK-MEL-5 cells
UACC-257 = experiment: Growth inhibition of human UACC257 cells
UACC-62 = experiment: Growth inhibition of human UACC62 cells
IGROV-1 = experiment: Growth inhibition of human IGROV1 cells
OVCAR-3 = experiment: Growth inhibition of human OVCAR-3 cells
OVCAR-4 = experiment: Growth inhibition of human OVCAR4 cells
OVCAR-5 = experiment: Growth inhibition of human OVCAR5 cells
OVCAR-8 = experiment: Growth inhibition of human OVCAR8 cells; settings: OVCAR-8, read-out: pGI50 (converted)
SK-OV-3 = experiment: Growth inhibition of human SKOV3 cells
[1] = Growth inhibition of human 786-O cells; settings: 786-0
A498 = experiment: Growth inhibition of human A498 cells
ACHN = experiment: Growth inhibition of human ACHN cells
CAKI-1 = experiment: Growth inhibition of human Caki1 cells
RXF 393 = experiment: Growth inhibition of human RXF393 cells
SN12C = experiment: Growth inhibition of human SN12C cells
TK-10 = experiment: Growth inhibition of human TK10 cells
UO-31 = experiment: Growth inhibition of human UO31 cells
DMS-273 = experiment: Growth inhibition of human DMS273 cells
KM12 = experiment: Growth inhibition of human KM12 cells
CCRF-CEM = experiment: Growth inhibition of human CCRF-CEM cells
HL-60(TB) = experiment: Growth inhibition of human HL-60(TB) cells
K562 = experiment: Growth inhibition of human K562 cells
MOLT-4 = experiment: Growth inhibition of human MOLT4 cells
RPMI-8226 = experiment: Growth inhibition of human RPMI8226 cells
SR = experiment: Growth inhibition of human SR cells
A549 = experiment: Growth inhibition of human A549 cells
EKVX = experiment: Growth inhibition of human EKVX cells
HOP-18 = experiment: Growth inhibition of human HOP18 cells
HOP-62 = experiment: Growth inhibition of human HOP62 cells
HOP-92 = experiment: Growth inhibition of human HOP92 cells
NCI-H226 = experiment: Growth inhibition of human NCI-H226 cells
NCI-H23 = experiment: Growth inhibition of human NCI-H23 cells
NCI-H322M = experiment: Growth inhibition of human NCI-H322M cells
NCI-H460 = experiment: Growth inhibition of human NCI-H460 cells
NCI-H522 = experiment: Growth inhibition of human NCI-H522 cells
[2] = Growth inhibition of human LXFL529 cells; settings: LXFL 529
DMS-114 = experiment: Growth inhibition of human DMS114 cells

## CO[C@H]1c2nc3c(nc2C[C@@H]2CC[C@H]4C5=CC[C@@H]6[C@@H](C)[C@]7(OC[C@]56C(=O)C[C@]4(O)[C@]21C)OC(C)(C)C[C@H]7O)C[C@@]1(C)[C@@H](CC[C@H]2C4=C[C@@H]5O[C@]6(O[C@](C)(CO)C[C@H]6O)[C@@H](C)[C@]5(O)[C@@]4(C)[C@H](O)C[C@@H]21)C3
P388
  EC50: 2.5 ng/mL (≈ 2.61 nM)

## C[C@@H]1[C@]2(O[C@H]3C=C4[C@@H]5CC[C@H]6Cc7nc8c(nc7C[C@]6(C)[C@H]5C[C@@H](O)[C@]4(C)[C@]31O)C[C@@H]1CC[C@H]3C4=CC[C@@H]5[C@H](C)[C@@]6(OC[C@]45C(=O)C[C@@H]3[C@@]1(C)C8)OC(C)(C)C[C@H]6O)O[C@](C)(CO)C[C@H]2O [CEPHALOSTATIN 1]
COLO 205
  GI50: 1.7 nM
DLD-1
  GI50: 8.51 nM
HCC 2998
  GI50: 60.3 nM
HCT-116
  GI50: 0.525 nM
HCT-15
  GI50: 3.39 nM
HT-29
  GI50: 2 nM
KM-20L2
  GI50: 2 nM
SW-620
  GI50: 0.302 nM
SF-268
  GI50: 2.19 nM
SF-295
  GI50: 0.0437 nM
SF-539
  GI50: 0.0813 nM
SNB-19
  GI50: 1.7 nM
SNB-75
  GI50: 0.0813 nM
SNB-78
  GI50: 0.794 nM
U-251
  GI50: 0.0646 nM
XF498
  GI50: 0.589 nM
LOX IMVI
  GI50: 0.24 nM
Malme-3M
  GI50: 5.25 nM
M14
  GI50: 0.49 nM
M19-MEL
  GI50: 47.9 nM
SK-MEL-2
  GI50: 0.741 nM
SK-MEL-28
  GI50: 0.955 nM
SK-MEL-5
  GI50: 3.47 nM
UACC-257
  GI50: 3.71 nM
UACC-62
  GI50: 0.389 nM
IGROV-1
  GI50: 2.19 nM
OVCAR-3
  GI50: 30.9 nM
OVCAR-4
  GI50: 14.1 nM
OVCAR-5
  GI50: 10 nM
OVCAR-8
  GI50: 24 nM
SK-OV-3
  GI50: 7.08 nM
[1]
  GI50: 0.0776 nM
A498
  GI50: 0.537 nM
ACHN
  GI50: 3.31 nM
CAKI-1
  GI50: 0.724 nM
RXF 393
  GI50: 0.0251 nM
SN12C
  GI50: 21.9 nM
TK-10
  GI50: 93.3 nM
UO-31
  GI50: 4.17 nM
DMS-273
  GI50: 0.0525 nM
KM12
  GI50: 3.24 nM
CCRF-CEM
  GI50: 0.251 nM
HL-60(TB)
  GI50: 0.151 nM
K562
  GI50: 0.427 nM
MOLT-4
  GI50: 0.2 nM
RPMI-8226
  GI50: 0.0513 nM
SR
  GI50: 0.288 nM
A549
  GI50: 1.1 nM
EKVX
  GI50: 43.6 nM
HOP-18
  GI50: 0.832 nM
HOP-62
  GI50: 0.209 nM
HOP-92
  GI50: 0.724 nM
NCI-H226
  GI50: 3.24 nM
NCI-H23
  GI50: 0.339 nM
NCI-H322M
  GI50: 33.1 nM
NCI-H460
  GI50: 0.309 nM
NCI-H522
  GI50: 2.4 nM
[2]
  GI50: 0.363 nM
DMS-114
  GI50: 0.661 nM

## CO[C@H]1c2nc3c(nc2C[C@@H]2CC[C@H]4C5=C[C@@H]6O[C@]7(O[C@](C)(CO)C[C@H]7O)[C@@H](C)[C@]6(O)[C@@]5(C)[C@H](O)C[C@@H]4[C@]21C)C[C@@]1(C)[C@@H](CC[C@H]2C4=CC[C@@H]5[C@H](C)[C@@]6(OC[C@]45C(=O)C[C@@]21O)OC(C)(C)C[C@H]6O)C3 [CEPHALOSTATIN 10]
P388
  EC50: 3 ng/mL (≈ 3.13 nM)
